From patent US20060205677A1 (XenoPort, Inc., priority 2005, published 2006)

Experiments:
[1] = tested on: Calu-6 cells; test: In vitro cytotoxicity (Alamar blue growth inhibition), Calu-6; format: cell-based, human; conditions: Calu-6, 48 h
Method: (§1) The effect of experimental compounds on cancer cell growth and viability was measured in a panel of human cancer cells grown in vitro. All cancer cell lines were obtained from the American […]. Cells were maintained in the following media: TUR, H69AR, Calu-6, ME180, and PC3 cells were grown in RPMI medium containing 4.5 g/L glucose, 10% FBS, 4 mM L-glutamine, and 1 mM sodium pyruvate); and HT29 cells were grown in DMEM with 4.5 g/L glucose, 10% FBS, and 6 mM L-glutamine. All cells were grown at 37° C. in 5% CO2 and passaged bi-weekly.
(§2) For cytoxicity studies, cells were seeded into 96-well clear-bottom microtiter plates at the following densities: TUR (7,500 cells/well), HT29 (5,000 cells/well), H69AR (10,000 cells/well), Calu-6 (15,000 cells/well), and ME180 (2,500 cells/well). Cells were maintained at 37° C. with 5% CO2 for 24 hours prior to addition of various experimental compounds. Each condition was measured in triplicate. For compounds dissolved in DMSO, the final DMSO concentration in each well and in the non-drug treated control cells was constant and below 1% in all studies. The number of viable cells was determined after 24, 48, and 72 hours using Alamar blue fluorescence. Briefly, Alamar blue (10 mM) was added to each well for 4 hours, and the number of viable cells estimated by measuring the fluorescence of reduced Alamar blue (530 nm excitation, 590 nm emission). To correct for background fluorescence, cells were treated with 100% DMSO to eliminate all viable cells. The effect of drug on cell growth was determined by calculating the fraction of live cells treated with drug compared to untreated cells: (F1drug treated−F1DMSO killed)/(F1untreated−F1DMSO killed).

[2] = tested on: H69AR cells; test: In vitro cytotoxicity (Alamar blue growth inhibition), H69AR; format: cell-based, human; conditions: 48 h
Method: as §1, §2

[3] = tested on: HT29 cells; test: In vitro cytotoxicity (Alamar blue growth inhibition), HT29; format: cell-based, human; conditions: HT29, 48 h
Method: as §1, §2

[4] = tested on: ME180 cells; test: In vitro cytotoxicity (Alamar blue growth inhibition), ME180; format: cell-based, human; conditions: ME180, 48 h
Method: as §1, §2

[5] = tested on: PC3 cells; test: In vitro cytotoxicity (Alamar blue growth inhibition), PC3; format: cell-based, human; conditions: PC3, 48 h
Method: as §1, §2

[6] = tested on: TUR cells; test: In vitro cytotoxicity (Alamar blue growth inhibition), TUR; format: cell-based, human; conditions: 48 h
Method: as §1, §2

[7] = tested on: PC3 (Prostate) xenograft; test: In vivo tumor growth inhibition, mouse xenograft, PC3; set-up: species or system nude athymic CD-1 mice; conditions: 80 mg/kg (2/week), IP
Method: (§3) Tumor xenograft studies were performed using nude athymic CD-1 mice (Charles River Laboratories). Human cancer cells (5×10^6 PC3, 5×10^6 HT29, 10^7 Calu-6, and 5×10^6 ME180) were implanted in the hind flank of nude mice. Tumor growth was measured using calipers and tumor volume calculated using the formula: (width^2×(length/2)). Tumor volume was measured 3 days per week. Animal weight was measured 3 days per week to assess compound toxicity.
Compounds were tested for in vivo tumor growth inhibition as follows. Animals bearing tumors 100-200 mg were sorted into groups (5-8 animals) with similar average tumor mass per group. Drug doses were administered by intraperitoneal (IP) injection (0.5 mL). Test compounds were dissolved in phosphate buffered saline (PBS) and concentration adjusted for animal weight. Actual drug concentrations in formulated doses were verified by quantitative nitrogen detection. Animals were dosed every 7 days for 21 days in most studies. In several studies, animals were dosed twice weekly (days 0, 4, 7, 10, 14, etc.). Tumor volume and animal weight were measured on days 0, 2, 4, 7, 9, 11, 14, 16, 18, 21, 23, 25, and 28. […] Tumor volume at the end of the study was calculated as a percentage of the tumor volume on day 0. […]

[8] = tested on: HT29 (Colon) xenograft; test: In vivo tumor growth inhibition, mouse xenograft, HT29; set-up: species or system nude athymic CD-1 mice; conditions: IP
Method: as §3
(§4) Compounds were tested for in vivo tumor growth inhibition as follows. Animals bearing tumors 100-200 mg were sorted into groups (5-8 animals) with similar average tumor mass per group. Drug doses were administered by intraperitoneal (IP) injection (0.5 mL). Test compounds were dissolved in phosphate buffered saline (PBS) and concentration adjusted for animal weight. Actual drug concentrations in formulated doses were verified by quantitative nitrogen detection. Animals were dosed every 7 days for 21 days in most studies. In several studies, animals were dosed twice weekly (days 0, 4, 7, 10, 14, etc.). Tumor volume and animal weight were measured on days 0, 2, 4, 7, 9, 11, 14, 16, 18, 21, 23, 25, and 28. At the end of the study, animal blood was removed for analysis of liver and kidney function (BUN, creatine, AST and ALT; analytical measurements performed by Quality Clinical Labs). Tumor volume at the end of the study was calculated as a percentage of the tumor volume on day 0. The percent tumor growth inhibition was obtained from the ratio of the percentage tumor volume increase in drug treated animals to the percentage tumor volume increase in saline treated animals.

[9] = tested on: Calu-6 (Lung) xenograft; test: In vivo tumor growth inhibition, mouse xenograft, Calu-6; set-up: species or system nude athymic CD-1 mice; conditions: 100 mg/kg, IP
Method: as §3, §4

[10] = tested on: ME180 (Cervical) xenograft; test: In vivo tumor growth inhibition, mouse xenograft, ME180; set-up: species or system nude athymic CD-1 mice; conditions: 100 mg/kg, IP
Method: as §3, §4

[11] = Determination of maximum tolerated dose (MTD); format: in vivo, nude mice; conditions: ratio of maximum tolerated dose to minimally effective dose
Method: To determine the maximum tolerated doses for compound (54) relative to clinically used platinum anticancer agents, nude mice were injected with increasing drug doses (0.5 mL, intraperitoneally) on days 0, 7, and 14. […] The therapeutic index of a given drug is defined as the ratio of the maximum tolerated dose to the minimally effective dose.

[12] = tested on: HT29 cells; test: Effect of sugar transport inhibitor (phloridzen) on in vitro cytotoxicity; format: cell-based, human; conditions: 48 hours
Method: as §1, §2

| Structure (SMILES) | GI50 [1] [µM] | GI50 [2] [µM] | GI50 [3] [µM] | GI50 [4] [µM] | GI50 [5] [µM] | GI50 [6] [µM] | further results |
| --- | --- | --- | --- | --- | --- | --- | --- |
| O=C(CCC1C(=O)[O][Pt]2([NH]C3CCCCC3[NH]2)[O]C1=O)NC1OC(CO)C(O)C(O)C1O [(42), [1R,2R-Cyclohexanediamine-N,N′][{2-(β-D-Galactopyranos-1-ylamido)ethyl}propanedioato(2-)-O,O′]Platinum (II)] | 131 | 188 | 860 | 4 | 45 | 22 | – |
| O=C(CCC1C(=O)[O][Pt]2([NH]C3CCCCC3[NH]2)[O]C1=O)NC1OC(CO)C(O)C(O)C1O [(45), [1R,2R-Cyclohexanediamine-N,N′][{2-(β-D-Mannopyranos-1-ylamido)ethyl}propanedioato(2-)-O,O′]Platinum (II)] | – | 84 | – | – | – | 28 | – |
| O=C(CCCC1C(=O)[O][Pt]2([NH]C3CCCCC3[NH]2)[O]C1=O)NC1OC(CO)C(O)C(O)C1O [(51), [1R,2R-Cyclohexanediamine-N,N′][{3-(β-D-Galactopyranos-1-ylamido)propyl}propanedioato(2-)-O,O′]Platinum (II)] | 255 | 286 | 374 | 5 | 84 | 37 | – |
| N.N.O=C(CCCC1C(=O)[O][Pt][O]C1=O)NCC1OC(O)C(O)C(O)C1O [(60), [Diammine][{3-(α,β-D-Galactopyranos-6-ylamido)propyl}propanedioato(2-)-O,O′]Platinum (II)] | – | 79 | – | – | – | 117 | – |
| O=C(CCCC1C(=O)[O][Pt]2([NH]C3CCCCC3[NH]2)[O]C1=O)NCC1OC(O)C(O)C(O)C1O [(66), [1R,2R-Cyclohexanediamine-N,N′][{3-(α,β-D-Glucopyranos-6-ylamido)propyl}propanedioato(2-)-O,O′]Platinum (II)] | 163 | 102 | 222 | 7 | – | 15 | – |
| COC1OC(CNC(=O)CCCC2C(=O)[O][Pt]3([NH]C4CCCCC4[NH]3)[O]C2=O)C(O)C(O)C1O [(67), [1R, 2R-Cyclohexanediamine-N,N′][{3-(Methyl-α-D-Glucopyranos-6-ylamido)propyl}propanedioato(2-)-O,O′]Platinum (II)] | 68 | 185 | 234 | 5 | – | 21 | – |
| O=C1[O][Pt]2([NH]C3CCCCC3[NH]2)[O]C(=O)C1CCNC(=O)C1OC(O)C(O)C(O)C1O [(74), [1R,2R-Cyclohexanediamine-N,N′][{2-(α,β-D-Glucuron-6-yl-amido)ethyl}propanedioato(2-)-O,O′]Platinum (II)] | – | 53 | – | – | – | 53 | – |
| O=C1[O][Pt]2([NH]C3CCCCC3[NH]2)[O]C(=O)C1CCNC(=O)C1OC(O)C(O)C(O)C1O [(77), [1R, 2R-Cyclohexanediamine-N,N′][{2-(α,β-D-Galacturon-6-yl-amido)ethyl}propanedioato(2-)-O,O′]Platinum (II)] | – | 38 | – | – | – | 38 | – |
| COC1OC(C(=O)NCCC2C(=O)[O][Pt]3([NH]C4CCCCC4[NH]3)[O]C2=O)C(O)C(O)C1O [(78), [1R,2R-Cyclohexanediamine-N,N′][{2-(Methyl-β-D-Glucuron-6-yl-amido)ethyl}propanedioato(2-)-O,O′]Platinum (II)] | – | 76 | 103 | – | – | 15 | – |
| O=C(CCCC1C(=O)[O][Pt]2([NH]C3CCCCC3[NH]2)[O]C1=O)NC1C(O)OC(CO)C(O)C1O [(79), [1R,2R-Cyclohexanediamine-N,N′][{3-(α,β-D-Glucopyranos-2-yl-amido)propyl}propanedioato(2-)-O,O′]Platinum (II)] | – | 55 | 124 | – | 67 | 15 | Percent Tumor Growth Inhibition PC3 (Prostate) [7]: 48% |
| N.N.O=C(CCCC1C(=O)[O][Pt][O]C1=O)NC1C(O)OC(CO)C(O)C1O [(82), [Diammine][{3-(α,β-D-Glucopyranos-2-yl-amido)propyl}propanedioato(2-)-O,O′]Platinum (II)] | 300 | 112 | 800 | 11 | 133 | 142 | – |
| O=C1[O][Pt]2([NH]C3CCCCC3[NH]2)[O]C(=O)C1CCCC1OC(CO)C(O)C(O)C1O [(83), [1R, 2R-Cyclohexanediamine-N,N′][{3-(α,β-D-Mannopyranos-1-yl)propyl}propanedioato(2-)-O,O′]Platinum (II)] | 155 | 163 | 117 | 10 | 100 | 41 | – |
| NC1CCCCC1N.O=C1[O][Pt][O]C(=O)C1CCC1OC(CO)C(O)C(O)C1O [(88), [1R,2R-Cyclohexanediamine-N,N′][{2-(α,β-D-Glucopyranos-1-yl)ethyl}propanedioato(2-)-O,O′]Platinum (II)] | 260 | 98 | 226 | 13 | 112 | 31 | – |
| O=C1[O][Pt]2([NH]C3CCCCC3[NH]2)[O]C(=O)C1CCC1OC(CO)C(O)C(O)C1O (stereo not shown) [(93)] | 139 | 78 | 178 | 7 | 69 | 20 | – |
| N.N.O=C([O-])C1(C(=O)[O-])CCC1.[Pt+2] [Carboplatin, reference compound] | 712 | 94 | 515 | 64 | 290 | 123 | Percent Tumor Growth Inhibition HT29 (Colon) ([8]; 100 mg/kg): 47%; Percent Tumor Growth Inhibition Calu-6 (Lung) [9]: 56%; Percent Tumor Growth Inhibition ME180 (Cervical) [10]: 25%; Therapeutic Index MTD/Min Eff [11]: 2.3 |
| N.N.[Cl][Pt][Cl] [Cisplatin, reference compound] | 149 | 4 | 30 | 1 | 31 | 10 | GI50 ([12]; HT29, 0 mM phloridzen, read-out: GI50 of Uptake in HT29 Cells, 0 mM Phoridzen): 261 µM; GI50 ([12]; HT29, 0.2 mM phloridzen, read-out: GI50 of Uptake in HT29 Cells, 0.2 mM Phoridzen): 194 µM; GI50 ([12]; HT29, 0.5 mM phloridzen, read-out: GI50 of Uptake in HT29 Cells, 0.5 mM Phoridzen): 192 µM; GI50 ([12]; HT29, 1.0 mM phloridzen, read-out: GI50 of Uptake in HT29 Cells, 1.0 mM Phoridzen): 254 µM; Percent Tumor Growth Inhibition HT29 (Colon) ([8]; 2 mg/kg): 69% |
| O=C1[O][Pt]2([NH][C@@H]3CCCC[C@H]3[NH]2)[O]C1=O [Oxaliplatin, oxaliplatin, reference compound] | 52 | 60 | 133 | 28 | 113 | 42 | Percent Tumor Growth Inhibition HT29 (Colon) ([8]; 5 mg/kg): 40%; Therapeutic Index MTD/Min Eff [11]: 2.0 |
